Experimental data: publication PMC5590943, “Pharmacological characterisation of S 47445, a novel positive allosteric modulator of AMPA receptors” (PLoS ONE, 2017)

Columns and labels:
[1] = biological target: T1, human AMPA receptor GluA1i (GluA1 flip) (Homo sapiens, UniProt P42261); assay: Glutamate-evoked currents, oocytes expressing recombinant human AMPA receptors; assay type: cell-based
T1 construct: host or cells: Xenopus laevis oocytes
Method: (§1) Compounds were tested by bath application.

[2] = biological target: T2, human AMPA receptor GluA1i/2i (Homo sapiens, UniProt P42261+P42262, Q607R); assay: as above; assay type: cell-based
T2 construct: host or cells: Xenopus laevis oocytes
Method: as §1

[3] = biological target: T3, human AMPA receptor GluA1i/2o (Homo sapiens, UniProt P42261+P42262, Q607R); assay: as above; assay type: cell-based
T3 construct: host or cells: Xenopus laevis oocytes
Method: as §1

[4] = biological target: T4, human AMPA receptor GluA1o (GluA1 flop) (Homo sapiens, UniProt P42261); assay: as above; assay type: cell-based
T4 construct: host or cells: Xenopus laevis oocytes
Method: as §1

[5] = tested on: human AMPA receptor GluA1o (GluA1 flop); assay: as above; assay type: cell-based; settings: S 47445 100 μM
Method: as §1

[6] = biological target: T5, human AMPA receptor GluA1o/2i (Homo sapiens, UniProt P42261+P42262, Q607R); assay: as above; assay type: cell-based
T5 construct: host or cells: Xenopus laevis oocytes
Method: as §1

[7] = biological target: T6, human AMPA receptor GluA1o/2o (Homo sapiens, UniProt P42261+P42262, Q607R); assay: as above; assay type: cell-based
T6 construct: host or cells: Xenopus laevis oocytes
Method: as §1

[8] = biological target: T7, human AMPA receptor GluA4i (GluA4 flip) (Homo sapiens, UniProt P48058); assay: as above; assay type: cell-based
T7 construct: host or cells: Xenopus laevis oocytes
T7 sequence (P48058 21-902): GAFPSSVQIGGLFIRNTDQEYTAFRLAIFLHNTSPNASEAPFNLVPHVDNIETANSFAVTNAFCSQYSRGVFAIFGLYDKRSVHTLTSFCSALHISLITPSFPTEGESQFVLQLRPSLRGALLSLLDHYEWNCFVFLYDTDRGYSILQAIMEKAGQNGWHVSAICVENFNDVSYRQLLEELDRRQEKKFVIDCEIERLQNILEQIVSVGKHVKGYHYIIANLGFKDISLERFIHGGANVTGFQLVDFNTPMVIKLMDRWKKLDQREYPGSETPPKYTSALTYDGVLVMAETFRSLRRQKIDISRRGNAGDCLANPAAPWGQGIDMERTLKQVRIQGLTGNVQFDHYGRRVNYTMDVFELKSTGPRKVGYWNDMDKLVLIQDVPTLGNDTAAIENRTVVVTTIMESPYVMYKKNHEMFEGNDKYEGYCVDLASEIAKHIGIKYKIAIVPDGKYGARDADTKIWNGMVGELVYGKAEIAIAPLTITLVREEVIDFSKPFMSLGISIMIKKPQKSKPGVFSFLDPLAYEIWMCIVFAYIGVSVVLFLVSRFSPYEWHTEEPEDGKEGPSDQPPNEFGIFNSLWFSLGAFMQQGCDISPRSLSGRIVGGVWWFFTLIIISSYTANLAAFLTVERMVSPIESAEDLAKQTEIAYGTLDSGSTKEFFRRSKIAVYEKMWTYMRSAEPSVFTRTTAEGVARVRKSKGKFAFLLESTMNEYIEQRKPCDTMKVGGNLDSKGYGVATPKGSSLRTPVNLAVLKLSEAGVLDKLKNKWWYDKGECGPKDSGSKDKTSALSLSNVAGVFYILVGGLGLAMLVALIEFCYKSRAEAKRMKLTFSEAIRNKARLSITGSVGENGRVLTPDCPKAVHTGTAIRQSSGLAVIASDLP
Method: as §1

[9] = biological target: T8, human AMPA receptor GluA4i/2i (Homo sapiens, UniProt P42262+P48058, Q607R); assay: as above; assay type: cell-based
T8 construct: host or cells: Xenopus laevis oocytes
Method: as §1

[10] = biological target: T9, human AMPA receptor GluA4i/2o (Homo sapiens, UniProt P42262+P48058, Q607R); assay: as above; assay type: cell-based
T9 construct: host or cells: Xenopus laevis oocytes
T9 sequence (P48058 21-902): as above
T9 sequence (P42262 22-883 Q607R limits assumed): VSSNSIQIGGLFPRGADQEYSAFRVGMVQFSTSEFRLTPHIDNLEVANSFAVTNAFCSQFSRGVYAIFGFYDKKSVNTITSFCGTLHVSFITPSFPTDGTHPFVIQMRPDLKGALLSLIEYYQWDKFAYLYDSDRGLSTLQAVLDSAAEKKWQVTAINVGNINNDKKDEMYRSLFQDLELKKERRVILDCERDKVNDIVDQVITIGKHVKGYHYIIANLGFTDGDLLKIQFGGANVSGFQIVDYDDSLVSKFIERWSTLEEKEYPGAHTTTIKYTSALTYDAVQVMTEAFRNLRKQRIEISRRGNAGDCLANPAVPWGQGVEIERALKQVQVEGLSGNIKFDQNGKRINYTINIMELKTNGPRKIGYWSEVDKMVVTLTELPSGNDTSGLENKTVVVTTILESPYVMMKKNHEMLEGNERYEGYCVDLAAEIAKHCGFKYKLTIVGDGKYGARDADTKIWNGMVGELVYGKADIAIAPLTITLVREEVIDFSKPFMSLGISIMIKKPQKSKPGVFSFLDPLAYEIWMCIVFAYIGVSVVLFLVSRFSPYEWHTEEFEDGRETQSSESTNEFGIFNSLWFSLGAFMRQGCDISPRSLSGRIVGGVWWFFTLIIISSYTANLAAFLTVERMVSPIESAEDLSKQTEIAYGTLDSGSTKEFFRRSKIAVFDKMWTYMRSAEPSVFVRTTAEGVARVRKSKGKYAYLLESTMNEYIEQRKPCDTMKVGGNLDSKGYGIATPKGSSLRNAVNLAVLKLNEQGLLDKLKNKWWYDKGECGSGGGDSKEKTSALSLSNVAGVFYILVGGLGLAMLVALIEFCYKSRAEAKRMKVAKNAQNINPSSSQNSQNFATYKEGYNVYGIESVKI
Method: as §1

[11] = biological target: T10, human AMPA receptor GluA4o (GluA4 flop) (Homo sapiens, UniProt P48058, A778Q/D799G/G801D/K798G/P767A/P797S/S776N/S800G/T766N/V780L); assay: as above; assay type: cell-based
T10 construct: host or cells: Xenopus laevis oocytes
Method: as §1

[12] = biological target: T11, human AMPA receptor GluA4o/2i (Homo sapiens, UniProt P42262+P48058, Q607R); assay: as above; assay type: cell-based
T11 construct: host or cells: Xenopus laevis oocytes
Method: as §1

[13] = biological target: T12, human AMPA receptor GluA4o/2o (Homo sapiens, UniProt P42262+P48058, A778Q/D799G/G801D/K798G/P767A/P797S/Q607R/S776N/S800G/T766N/V780L); assay: as above; assay type: cell-based
T12 construct: host or cells: Xenopus laevis oocytes
Method: as §1

[14] = biological target: T13, GluA1flop/GluA2flip AMPA receptors (Homo sapiens, UniProt P42261+P42262, Q607R); assay: 10 μM glutamate-evoked currents in Xenopus laevis oocytes expressing GluA1flop/GluA2flip (repetitive pulses, GYKI52466); assay type: cell-based; settings: for EC50: n = 3
T13 construct: host or cells: Xenopus laevis oocytes
T13 sequence (P42261 19-906): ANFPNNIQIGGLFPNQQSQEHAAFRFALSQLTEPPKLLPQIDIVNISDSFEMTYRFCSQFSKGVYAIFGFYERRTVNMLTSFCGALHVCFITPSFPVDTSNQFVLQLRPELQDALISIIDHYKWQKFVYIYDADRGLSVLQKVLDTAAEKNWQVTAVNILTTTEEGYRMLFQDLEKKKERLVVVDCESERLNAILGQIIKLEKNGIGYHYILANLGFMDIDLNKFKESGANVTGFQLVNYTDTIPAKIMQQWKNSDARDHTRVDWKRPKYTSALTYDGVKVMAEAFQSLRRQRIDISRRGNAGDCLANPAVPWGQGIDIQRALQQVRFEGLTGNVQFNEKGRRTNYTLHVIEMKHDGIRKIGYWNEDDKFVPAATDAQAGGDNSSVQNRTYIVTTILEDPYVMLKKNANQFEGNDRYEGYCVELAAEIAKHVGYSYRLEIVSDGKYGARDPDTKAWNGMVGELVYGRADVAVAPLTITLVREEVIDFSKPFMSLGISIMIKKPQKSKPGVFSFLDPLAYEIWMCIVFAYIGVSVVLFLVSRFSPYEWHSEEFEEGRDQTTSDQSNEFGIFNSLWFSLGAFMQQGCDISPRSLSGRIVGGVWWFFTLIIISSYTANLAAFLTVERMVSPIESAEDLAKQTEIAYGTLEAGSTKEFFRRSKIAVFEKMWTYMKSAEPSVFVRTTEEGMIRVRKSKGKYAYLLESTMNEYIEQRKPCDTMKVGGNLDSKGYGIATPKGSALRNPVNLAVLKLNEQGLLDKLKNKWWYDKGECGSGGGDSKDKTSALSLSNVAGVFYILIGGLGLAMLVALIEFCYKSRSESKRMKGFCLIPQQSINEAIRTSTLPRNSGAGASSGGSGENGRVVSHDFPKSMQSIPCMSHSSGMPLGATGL
T13 sequence (P42262 22-883 isoform P42262-2 Q607R limits assumed): as the sequence (P42262 22-883 Q607R limits assumed) above, with N744T, A745P, N754S, L758V, S775A, G776K, G777D, G778S, D779G counted along it
Method: as §1
To test the inhibition, the selective AMPA receptor antagonist GYKI52446 was used from 10 to 1000 μM on the potentiation caused by S 47445 (1 μM).
EC50 were determined either using Matlab (Mathworks inc., Natick, USA) or SAS v9.2 (SAS Institute inc., Cary, USA) softwares. To have a comparative value between the tested drugs when EC50 could not be determined (absence of plateau at high concentrations), the EC2X was determined. EC2X corresponds to the concentrations of the drug responsible for a two-fold increase in the amplitude of the current.

[15] = biological target: AMPA/Kainate chimera GluA1(K2NTD) (Homo sapiens, UniProt P42261+Q13002); assay: Glutamate-evoked current in oocytes expressing AMPA/Kainate chimera; assay type: cell-based
Method: as §1

male NMRI mice = assay: Functional observation battery in mice; assay type: in vivo, mouse
Method: The effect of 47445 after high doses administration was assessed on general behaviour in mice. Male NMRI mice (18–22 g, Janvier Labs, Le Genest Saint Isle, France) were used and placed individually for habituation, 15 min before administration. Room temperature was maintained at 20.9°C during experimentation. At T0 min, body temperature was monitored via a rectal probe connected to a computer (Viewpoint). Mice were then orally treated with S 47445 (30, 100 and 300 mg/kg) or vehicle. […] Delta of body temperature compared to T0 min (°C) was calculated. Groups were compared for body temperature at T0 min with a one-way ANOVA followed by Tukey’s pair-wise comparison post hoc tests. The treatment effect on delta of body temperature compared to T0 min was analysed using a two-way ANOVA followed by Dunnett’s post hoc tests. Analyses were performed using SAS v9.2 software (SAS Institute, Cary, NC).

[16] = Solubility noted in co-crystallization experiments with GluA2; assay type: physicochemical; settings: prevented co-crystallization with GluA2
[17] = set-up: method as in previous kinetic experiments (reference not given); settings: 0.3 mg/kg oral, mice; ref previous kinetic experiments (reference not given); read-out: Cerebral Cmax; cited from earlier work
[18] = tested on: CA3-CA1 hippocampal synapses; set-up: method as in PMID 28603025; settings: cited from earlier work
mature form of BDNF = tested on: mature form of BDNF; set-up: method as in PMID 7718245; settings: aged rats, from the dose of 1 mg/kg; cited from earlier work
I2 = assay: Binding assay, [3H]idazoxan
α2 (non-selective) = assay: Binding assay, [3H]RX 821002
Estrogen a (h) (ERa) = Estrogen a (h) (ERa) (Homo sapiens, UniProt P03372); assay: Binding assay, fluormone ES2
Chain of Estrogen a (h) (ERa) (P03372 whole entry): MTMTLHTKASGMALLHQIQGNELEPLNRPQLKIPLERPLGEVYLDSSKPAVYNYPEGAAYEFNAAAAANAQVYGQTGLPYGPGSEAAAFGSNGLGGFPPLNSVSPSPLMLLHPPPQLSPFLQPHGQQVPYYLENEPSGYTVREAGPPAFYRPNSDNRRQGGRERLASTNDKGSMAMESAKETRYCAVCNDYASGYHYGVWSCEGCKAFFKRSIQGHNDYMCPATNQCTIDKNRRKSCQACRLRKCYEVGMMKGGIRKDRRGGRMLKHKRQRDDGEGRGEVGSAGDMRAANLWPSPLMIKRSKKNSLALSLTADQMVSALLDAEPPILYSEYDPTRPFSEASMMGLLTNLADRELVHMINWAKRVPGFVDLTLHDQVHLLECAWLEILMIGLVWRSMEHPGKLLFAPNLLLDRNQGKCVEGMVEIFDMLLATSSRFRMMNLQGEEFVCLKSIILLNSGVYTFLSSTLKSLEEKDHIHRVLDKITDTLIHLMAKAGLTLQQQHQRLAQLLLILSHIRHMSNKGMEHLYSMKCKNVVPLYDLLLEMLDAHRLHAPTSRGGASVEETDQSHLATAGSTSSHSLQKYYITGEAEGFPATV

[19] = tested on: about a hundred receptors, enzymes, transporters and channels; assay: CEREP panel, competition binding and enzyme assays
PDE3 (h) = assay: Enzyme and cell-based assay, [3H]cAMP + cAMP (0.1 μM)

Q: For `O=C1c2cc3nnn(CCc4cccc(F)c4)c(=O)c3cc2OCN1C1CC1` [S 47445, 8-cyclopropyl-3-[2-(3-fluorophenyl)ethyl]-7,8-dihydro-3H-[1,3]oxazino[6,5-g][1,2,3]benzotriazine-4,9-dione], which EC50 [1] is on record?
A: 5.4 µM

Q: And the EC50 [2]?
A: 2.6 µM

Q: What about the EC50 [3] of the same molecule?
A: 4.3 µM

Q: And the EC50 [4]?
A: 2.5 µM

Q: And the “Amplitude of potentiation, flop variants compared to flip variants at GluA1” value [5]?
A: about 9 fold

Q: And the EC50 [6]?
A: 5.4 µM

Q: What about the EC50 [7] of the same molecule?
A: 3.9 µM

Q: What about the EC50 [8] of the same molecule?
A: 3 µM

Q: And the EC50 [9]?
A: 5.4 µM

Q: What about the EC50 [10] of the same molecule?
A: 3.3 µM

Q: What about the EC50 [11] of the same molecule?
A: 0.7 µM

Q: And the EC50 [12]?
A: 3.8 µM

Q: What about the EC50 [13] of the same molecule?
A: 2.9 µM

Q: What about the EC50 ([14]; EC50 of potentiation in absence of GYKI52466, 10 μM glutamate) of the same molecule?
A: 3.23 ± 0.5 µM

Q: And the EC50 ([14]; EC50 of potentiation in presence of 100μM of GYKI52466, 10 μM glutamate)?
A: 1.99 ± 0.3 µM

Q: What about the “Effect on glutamate-evoked currents with repetitive glutamate pulses” value ([14]; S 47445 0.1 and 0.3 μM, 10 μM glutamate 20 s, 1/min) of the same molecule?
A: progressive potentiation of the glutamate-evoked currents from the second pulse of glutamate

Q: What about the EC50 [15] of the same molecule?
A: 4.2 µM

Q: What about the “Body temperature and behavior” value (male NMRI mice; 30, 100 and 300 mg/kg oral acute) of the same molecule?
A: no significant effect

Q: And the Spontaneous epileptic seizures (male NMRI mice; up to 300 mg/kg p.o.)?
A: No occurrence

Q: And the Solubility [16]?
A: poor solubility

Q: And the Cmax [17]?
A: 100 to 200 nM

Q: What about the “Age-related deficit of LTP” value ([18]; 10 mg/kg chronic, old alert mice) of the same molecule?
A: significantly counteracted the deficit of LTP

Q: What about the “Long term potentiation (LTP) versus vehicle” value ([18]; 10 mg/kg p.o. acute, young alert mice) of the same molecule?
A: significantly increased long term potentiation

Q: What about the “Neurotrophic effect on BDNF proteins” value (mature form of BDNF) of the same molecule?
A: inducing mature form of BDNF proteins

Q: What about the “% Inhibition of control specific binding” value (I2; S 47445 1.0E-05 M) of the same molecule?
A: 29%

Q: What about the “% Inhibition of control specific binding” value (I2; S 47445 1.0E-07 M) of the same molecule?
A: -5%

Q: And the “% Inhibition of control specific binding” value (α2 (non-selective); S 47445 1.0E-05 M)?
A: -5%

Q: What about the “% Inhibition of control specific binding” value (α2 (non-selective); S 47445 1.0E-07 M) of the same molecule?
A: -2%

Q: What about the “% Inhibition of control specific binding” value (Estrogen a (h) (ERa); S 47445 1.0E-05 M) of the same molecule?
A: 5%

Q: What about the “% Inhibition of control specific binding” value (Estrogen a (h) (ERa); S 47445 1.0E-07 M) of the same molecule?
A: 4%

Q: What about the “Percentage of inhibition of control value” ([19]; 10 μM S 47445, all assays of S1 Table) of the same molecule?
A: lower than 50%

Q: What about the Ki ([19]; read-out: Ki values in all these assays, inferred from <50% inhibition at 10 μM) of the same molecule?
A: > 10 µM

Q: And the “% Inhibition of control specific binding” value (PDE3 (h); S 47445 1.0E-05 M)?
A: -5%

Q: What about the “% Inhibition of control specific binding” value (PDE3 (h); S 47445 1.0E-07 M) of the same molecule?
A: 0%
